Values of other authors, collected in patent US20180214382A1, “EDIBLE COMPOSITION COMPRISING A POLYSACCHARIDE AND A LIPID” (PERORA GMBH, priority 2015, published 2018).

Conditions: rat feeding study; independent from intake

CCCCCCCCCCCCCCCCCC(=O)OCC(COC(=O)CCCCCCCCCCCCCCCCC)OC(=O)CCCCCCCCCCCCCCCCC [tristearin]
true digestibility of stearic acid from tristearin: 0.15 g/g
